Measurements taken from patent US7323496B2, “Compounds for treatment of inflammation, diabetes and related disorders” (Theracos, Inc., priority 1999, dated 2008).

How the values were obtained:
3T3-L1 adipocytes [1] = test: Stimulation of glucose uptake in differentiated 3T3-L1 adipocytes with 100 nM insulin; format: cell-based; details: Mus musculus, 48 h, vehicle set at 100%, read-out: Percent Stimulation of Glucose Uptake
[2] = test system: human elutriated monocytes; test: Cell viability of human monocytes (MTS/PMS assay); format: cell-based; details: 30 μM
DBA/1J mice = test: Collagen-induced arthritis in mice; format: in vivo, mouse; details: for arthritis clinical score (severity) compared with vehicle controls: FIG. 9
TNF-alpha [3] = test: Inhibition of LPS-induced TNF-alpha production in mice (plasma ELISA); format: in vivo, mouse; details: summary in words of Table 6, 50 or 100 mg/kg oral
p44/42 MAP kinase = test: Inhibition of LPS-induced phosphorylation of p44/42 MAP kinase in RAW 264.7 gamma NO(-) cells (Western blot); format: cell-based, mouse; details: data not shown
PDE3 = biological target: T1, PDE3 (Homo sapiens, UniProt Q14432); test: Inhibition of PDE3 enzyme activity; format: biochemical; details: PDE3 from human platelets
T1 construct: PDE3 partially purified from human platelets were used; from tissue; host or cells: human platelets
T1 sequence (Q14432 whole entry): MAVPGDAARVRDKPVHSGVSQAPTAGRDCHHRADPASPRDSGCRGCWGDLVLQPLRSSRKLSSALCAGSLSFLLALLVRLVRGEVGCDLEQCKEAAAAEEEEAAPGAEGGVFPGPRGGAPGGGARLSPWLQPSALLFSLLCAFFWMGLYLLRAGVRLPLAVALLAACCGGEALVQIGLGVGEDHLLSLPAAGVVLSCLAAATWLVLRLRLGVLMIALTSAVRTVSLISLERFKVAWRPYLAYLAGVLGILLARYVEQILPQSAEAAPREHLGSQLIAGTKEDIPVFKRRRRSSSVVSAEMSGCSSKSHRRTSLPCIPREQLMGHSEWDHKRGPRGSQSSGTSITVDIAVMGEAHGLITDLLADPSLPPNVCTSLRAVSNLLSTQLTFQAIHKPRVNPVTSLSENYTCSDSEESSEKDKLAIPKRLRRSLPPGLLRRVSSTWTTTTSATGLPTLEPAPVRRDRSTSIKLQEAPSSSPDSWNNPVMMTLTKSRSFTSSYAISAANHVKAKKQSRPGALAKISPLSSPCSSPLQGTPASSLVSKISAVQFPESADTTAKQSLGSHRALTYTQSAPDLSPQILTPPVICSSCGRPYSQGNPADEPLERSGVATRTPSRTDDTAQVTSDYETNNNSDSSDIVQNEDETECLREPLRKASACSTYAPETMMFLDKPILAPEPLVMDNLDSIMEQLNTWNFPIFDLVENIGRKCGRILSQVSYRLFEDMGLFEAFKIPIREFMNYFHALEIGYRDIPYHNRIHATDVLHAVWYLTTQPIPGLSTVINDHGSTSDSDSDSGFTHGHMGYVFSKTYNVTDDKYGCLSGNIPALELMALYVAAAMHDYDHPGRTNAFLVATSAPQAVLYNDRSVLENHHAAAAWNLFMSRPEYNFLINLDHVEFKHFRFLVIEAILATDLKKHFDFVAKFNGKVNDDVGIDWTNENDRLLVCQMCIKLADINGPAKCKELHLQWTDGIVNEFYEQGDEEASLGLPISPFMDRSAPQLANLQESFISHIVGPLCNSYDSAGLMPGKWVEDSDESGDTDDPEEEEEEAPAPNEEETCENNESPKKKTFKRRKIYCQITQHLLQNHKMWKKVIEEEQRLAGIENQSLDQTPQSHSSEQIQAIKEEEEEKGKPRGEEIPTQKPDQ

PDE4 = test: Inhibition of PDE4 enzyme activity; format: biochemical, human; details: for Percent Inhibition of Enzyme Activity, PDE4: PDE4 from human U-937 cells, 1 μM cAMP
3T3-L1 adipocytes [4] = test: Glucose uptake in 3T3-L1 differentiated adipocytes (14C-deoxyglucose); format: cell-based, mouse; details: 48 hours with different concentrations, percentage of basal level, FIG. 1
IL-1 beta = test: Inhibition of LPS-induced IL-1 beta production in RAW264.7 cells (ELISA); format: cell-based, mouse; details: RAW264.7, 10, 30 or 100 μM, LPS 0.1 μg/ml 6 hours; same approximate magnitude as dexamethasone 1 μM, FIG. 6
iNOS = test: Inhibition of LPS-induced iNOS production in RAW264.7 cells (Western blot); format: cell-based, mouse; details: RAW264.7, 10, 30 or 100 μM, FIG. 8
3T3-L1 adipocytes [5] = test: Insulin-stimulated glucose uptake in 3T3-L1 adipocytes; format: cell-based, mouse; details: 5 μM, 48 hours, different concentrations of insulin, versus vehicle, FIG. 2
TNF-alpha [6] = test: Inhibition of LPS-induced TNF-alpha production in RAW264.7 cells (ELISA); format: cell-based, mouse; details: RAW264.7, 10, 30 or 100 μM, LPS 0.1 μg/ml 6 hours; effect approached dexamethasone 1 μM, FIG. 5
IL-6 = test: Inhibition of LPS-induced IL-6 production in RAW264.7 cells (ELISA); format: cell-based, mouse; details: RAW264.7, 10, 30 or 100 μM, LPS 0.1 μg/ml 6 hours; greater than dexamethasone 1 μM, FIG. 7
ob/ob mice [7] = test: Glucose-lowering effect in ob/ob mice; format: in vivo, mouse; details: 10 mg/kg daily oral, p<0.05
ob/ob mice [8] = test: Lipid-lowering effects in ob/ob mice; format: in vivo, mouse; details: 10 mg/kg daily oral, day 8, versus vehicle, p<0.05
COX-2 = test: Inhibition of LPS-induced COX-2 production in RAW264.7 cells (Western blot); format: cell-based, mouse; details: LPS-stimulated RAW264.7, 10, 30 or 100 μM, FIG. 8
COX-1 = COX-1 production in LPS-stimulated RAW264.7 cells (Western blot); format: cell-based, mouse; details: LPS-stimulated RAW264.7, 10, 30 or 100 μM, FIG. 8
[9] = low dose 40 mg/kg oral twice daily for 14 days

| Structure (SMILES) | activity at 0.1 µM (3T3-L1 adipocytes [1]) | activity at 1 µM (3T3-L1 adipocytes [1]) | activity at 10 µM (3T3-L1 adipocytes [1]) | also measured |
| --- | --- | --- | --- | --- |
| COc1cc(/C=C(/C(=O)N(C)C)c2ccc(Oc3ccc(CCC(=O)NCC(=O)N4CCOCC4)cc3)cc2)cc(OC)c1 [Compound 63, 3-(3,5-Dimethoxyphenyl)-N,N-dimethyl-2-(4-{4-[2-(2-morpholin-4-yl-2-oxoethylcarbamoyl)-ethyl]-phenoxy}-phenyl)-acrylamide] | 107% | 112% | 139% | – |
| COc1cc(/C=C(/C(=O)N2CCCCC2)c2ccc(Oc3ccc(CCC(=O)NC(N)=O)cc3)cc2)cc(OC)c1 [Compound 51, [3-(4-{4-[2-(3,5-dimethoxyphenyl)-1-(piperidine-1-carbonyl)-vinyl]-phenoxy}-phenyl)-propionyl]-urea] | 93% | 107% | 136% | Cell viability [2]: * (Cell viability <70%) |
| COc1cc(/C=C(/C(=O)N(C)C)c2ccc(Oc3ccc(CCC(=O)N4CCN(C)CC4)cc3)cc2)cc(OC)c1 [Compound 64, 3-(3,5-dimethoxyphenyl)-N,N-dimethyl-2-(4-{4-[3-(4-methylpiperazin-1-yl)-3-oxopropyl]-phenoxy}-phenyl)-acrylamide] | 108% | 113% | 127% | – |
| COc1cc(/C=C(/C(=O)N(C)C)c2ccc(Oc3ccc(CCC(N)=O)cc3)cc2)cc(OC)c1 [Compound 31, 2-{4-[4-(2-Carbamoylethyl)-phenoxy]-phenyl}-3-(3,5-dimethoxyphenyl)-N,N-dimethylacrylamide] | 107% | 119% | 161% | hind limb histology (DBA/1J mice; high dose 100 mg/kg oral twice daily for 14 days): reduction in incidence and severity of pannus formation, inflammation cell infiltration and bone/cartilage damage; arthritis clinical score (severity) compared with vehicle controls (DBA/1J mice; high dose 100 mg/kg oral twice daily for 14 days, about same extent as dexamethasone): prevented the increase in severity; hind limb histology (DBA/1J mice; [9]): marked chronic inflammation of synovium with pannus formation and destruction of bone and cartilage; arthritis clinical score (severity) compared with vehicle controls (DBA/1J mice; [9]): no apparent effect; inhibition of LPS-induced TNF-alpha production in mice (TNF-alpha [3]): significantly inhibited |
| COc1cc(/C=C(/C(=O)N(C)C)c2ccc(Oc3ccc(CCC(=O)N4CCOCC4)cc3)cc2)cc(OC)c1 [Compound 40, 3-(3,5-Dimethoxyphenyl)-N,N-dimethyl-2-{4-[4-(3-morpholin-4-yl-3-oxopropyl)-phenoxy]phenyl}-acrylamide] | 126% | 117% | 126% | – |
| COc1cc(/C=C(/C(=O)N(C)C)c2ccc(Oc3ccc(CCC(=O)NC(N)=O)cc3)cc2)cc(OC)c1 [Compound 13, 3-(3,5-dimethoxyphenyl)-N,N-dimethyl-2-{4-[4-(3-oxo-3-ureido-propyl)-phenoxy]-phenyl}-acrylamide] | – | – | – | inhibition of LPS/IFN-gamma induced phosphorylation of p44/42 (p44/42 MAP kinase; 30 μM and 10 μM, LPS 10 ng/ml / IFN-gamma 10 U/ml 15 min): dose-dependent manner; inhibition of LPS-induced phosphorylation of p44/42 MAP kinase (p44/42 MAP kinase; 30 μM, LPS 10 ng/ml 15 min): inhibited; IC50 (PDE3): 13.6 µM; Percent Inhibition of Enzyme Activity, PDE4 (PDE4; 1 μM): 85%; Percent Inhibition of Enzyme Activity, PDE4 (PDE4; 10 μM): 98%; Percent Inhibition of Enzyme Activity, PDE4 (PDE4; 30 μM): 102%; IC50 (PDE4; PDE4 from human U-937 promonocytic cells): < 1 µM |
| CC(=O)NC(=O)CCc1ccc(Oc2ccc(/C(=C\c3ccc(F)cc3)C(=O)N(C)C)cc2)cc1 [Compound 56, 2-{4-[4-(3-acetylamino-3-oxopropyl)-phenoxy]-phenyl}-3-(4-fluorophenyl)-N,N-dimethylacrylamide] | 83% | 100% | 126% | – |
| COc1cc(/C=C(/C(=O)Nc2ccc(Cl)cc2)c2ccc(Oc3ccc(CCC(=O)NC(N)=O)cc3)cc2)cc(OC)c1 [Compound 61, N-(4-chlorophenyl)-3-(3,5-dimethoxyphenyl)-2-{4-[4-(3-oxo-3-ureidopropyl)-phenoxy]-phenyl}-acrylamide] | 93% | 120% | 229% | – |
| COC(=O)NCc1ccc(Oc2ccc(/C(=C\c3cc(OC)cc(OC)c3)C(=O)N(C)C)cc2)cc1 [Compound 29, (4-{4-[2-(3,5-dimethoxyphenyl)-1-dimethylcarbamoyl-vinyl]-phenoxy}-benzyl)-carbamic acid methyl ester] | 106% | 124% | 120% | – |
| CCOC(=O)NC(=O)CCc1ccc(Oc2ccc(/C(=C\c3cc(OC)cc(OC)c3)C(=O)OC)cc2)cc1 [Compound 8, 3-(3,5-dimethoxyphenyl)-2-{4-[4-(3-ethoxycarbonylamino-3-oxo-propyl)-phenoxy]-phenyl}-acrylic acid methyl ester] | 115% | 132% | 171% | – |
| COC(=O)C(=Cc1cc(OC)cc(OC)c1)c1ccc(Oc2ccc(CCC(=O)NC(N)=O)cc2)cc1 [Compound 1, 3-(3,5-dimethoxyphenyl)-2-{4-[4-(3-oxo-3-ureidopropyl)-phenoxy]-phenyl}-acrylyc acid methyl ester] | – | – | – | glucose uptake (3T3-L1 adipocytes [4]): dose-dependent increase; inhibition of LPS-induced production of IL-1 beta (IL-1 beta): significantly inhibited; inhibition of LPS-induced iNOS production (iNOS): dose-dependent inhibition; stimulation of glucose uptake by insulin (3T3-L1 adipocytes [5]): enhanced; inhibition of LPS-induced production of TNF-alpha (TNF-alpha [6]): significantly inhibited; inhibition of LPS-induced production of IL-6 (IL-6): significantly inhibited; decrease in blood glucose levels (ob/ob mice [7]; day 6, versus vehicle): 36%; decrease in blood glucose levels (ob/ob mice [7]; day 8, versus vehicle): 23%; decrease in free fatty acids (ob/ob mice [8]): 19%; decrease in serum triglycerides (ob/ob mice [8]): 49%; inhibition of production of COX-2 (COX-2): selectively inhibited; inhibition of production of COX-1 (COX-1): but not COX-1 |
| CN(C)C(=O)/C(=C/c1cccnc1)c1ccc(Oc2ccc(CCC(N)=O)cc2)cc1 [Compound 77, 2-{4-[4-(2-carbamoyl-ethyl)-phenoxy]-phenyl}-N,N-dimethyl-3-pyridin-3-yl-acrylamide] | – | – | – | inhibition of LPS-induced TNF-alpha production in mice (TNF-alpha [3]): significantly inhibited |
| COc1cc(/C=C(/C(=O)Nc2ccncc2)c2ccc(Oc3ccc(CCC(=O)NC(N)=O)cc3)cc2)cc(OC)c1 [Compound 60, 3-(3,5-dimethoxyphenyl)-2-{4-[4-(3-oxo-3-ureidopropyl)-phenoxy]-phenyl}-N-pyridin-4-ylacrylamide] | 93% | 120% | 229% | – |
